Results from patent US9981913B2, “Liver X receptor (LXR) modulators” (Ralexar Therapeutics, Inc., priority 2013, dated 2018).

Target: T1, human LXRβ (AA 153-461) LBD (Homo sapiens, UniProt P55055)
T1 construct: human LXRβ (AA 153-461) LBD plasmid; expressed in transfected cells; host or cells: HEK 293 cells, transient transfection with Fugene 6
T1 sequence (P55055 153-460 limits assumed): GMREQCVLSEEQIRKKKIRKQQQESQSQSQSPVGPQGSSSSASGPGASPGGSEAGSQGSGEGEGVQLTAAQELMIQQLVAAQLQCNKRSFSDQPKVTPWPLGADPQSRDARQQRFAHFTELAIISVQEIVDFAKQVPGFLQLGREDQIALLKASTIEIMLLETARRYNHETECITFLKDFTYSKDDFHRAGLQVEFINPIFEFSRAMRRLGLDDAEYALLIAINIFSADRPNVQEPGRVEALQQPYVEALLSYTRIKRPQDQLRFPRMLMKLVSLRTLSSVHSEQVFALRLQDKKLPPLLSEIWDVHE
Assay: Gal4 LXRβ cotransfection assay (LXRβ Gal fusion assay)
Type: cell-based
Details: transiently transfected HEK 293 cells, Gal4-responsive luciferase reporter, compounds 0.01-10 μM, triplicate
Description: For transient transfection of HEK 293 cells, 6×10^3 cells are plated into 96-well dishes. Each well is transfected with 25 ng 5×UAS-luciferase reporter (pG5luc) and 25 ng of […] human LXRβ (AA 153-461) LBD plasmid using Fugene 6 reagent (Roche; Indianapolis, Ind.). The chimeric protein is assessed for the ability to transactivate a Gal4-responsive luciferase reporter plasmid in a concentration-responsive manner to compounds (0.01-10 μM). Luciferase activity at each dose concentration is measured in triplicate using standard substrate reagents (BD Biosciences; San Diego, Calif.). Data is expressed as relative light units and are shown below in Table 1.

SMILES	EC50
CC(C)Cn1nc(C(=O)O)cc1-c1ccc(-c2cccc(S(C)(=O)=O)c2)cc1 [Example 6, 1-Isobutyl-5-(3′-(methylsulfonyl)-[1,1′-biphenyl]-4-yl)-1H-pyrazole-3-carboxylic acid]	> 10 µM
CS(=O)(=O)c1cc(-c2ccc(-n3cc(C(F)(F)F)nc3CC(=O)O)cc2)ccc1CO [Example 4, 2-(1-(4′-(Hydroxymethyl)-3′-(methylsulfonyl)[1,1′-biphenyl]-4-yl)-4-(trifluoromethyl)-1H-imidazol-2-yl)acetic acid]	> 10 µM
CC(C)c1cc(-c2ccc(-c3cccc(S(C)(=O)=O)c3)cc2)n(CC(=O)O)n1 [Example 16, 2-(3-Isopropyl-5-(3′-(methylsulfonyl)-[1,1′-biphenyl]-4-yl)-1H-pyrazol-1-yl)acetic acid]	> 10 µM
CS(=O)(=O)c1cccc(-c2ccc(-n3cc(C(F)(F)F)nc3CC(=O)O)cc2)c1 [Example 2, 2-(1-(3′-(Methylsulfonyl)-[1,1′-biphenyl]-4-yl)-4-(trifluoromethyl)-1H-imidazol-2-yl)acetic acid]	> 10 µM
CCOC(=O)Cc1nc(C(F)(F)F)cn1-c1ccc(-c2cccc(S(C)(=O)=O)c2)cc1 [Example 1, Ethyl 2-(1-(3′-(methylsulfonyl)-[1,1′-biphenyl]-4-yl)-4-(trifluoromethyl)-1H-imidazol-2-yl)acetate]	1 to 10 µM
CC(C)Cc1nc(C(=O)O)cn1-c1ccc(-c2cccc(S(C)(=O)=O)c2)cc1 [Example 10, 2-Isobutyl-1-(3′-(methylsulfonyl)-[1,1′-biphenyl]-4-yl)-1H-imidazole-4-carboxylic acid]	> 10 µM
C=C(C)c1cc(-c2ccc(-c3cccc(S(C)(=O)=O)c3)cc2)n(CC(=O)O)n1 [Example 14, 2-(5-(3′-(Methylsulfonyl)-[1,1′-biphenyl]-4-yl)-3-(prop-1-en-2-yl)-1H-pyrazol-1-yl)acetic acid]	> 10 µM
CC(C)Cn1nc(C(=O)O)cc1-c1ccc(-c2ccc(CO)c(S(C)(=O)=O)c2)cc1 [Example 8, 5-(4′-(Hydroxymethyl)-3′-(methylsulfonyl)-[1,1′-biphenyl]-4-yl)-1-isobutyl-1H-pyrazole-3-carboxylic acid]	> 10 µM
CC(C)Cc1nc(C(=O)O)cn1-c1ccc(-c2ccc(CO)c(S(C)(=O)=O)c2)cc1 [Example 12, 1-(4′-(Hydroxymethyl)-3′-(methylsulfonyl)-[1,1′-biphenyl]-4-yl)-2-isobutyl-1H-imidazole-4-carboxylic acid]	> 10 µM

The next lines start with the values.

EC50	SMILES
1 to 10 µM	CCOC(=O)c1cn(-c2ccc(-c3ccc(CO)c(S(C)(=O)=O)c3)cc2)c(CC(C)C)n1 [Example 11, Ethyl 1-(4′-(hydroxymethyl)-3′-(methylsulfonyl)-[1,1′-biphenyl]-4-yl)-2-isobutyl-1H-imidazole-4-carboxylate]
1 to 10 µM	CCOC(=O)Cn1nc(C(C)C)cc1-c1ccc(-c2cccc(S(C)(=O)=O)c2)cc1 [Example 15, Ethyl 2-(3-isopropyl-5-(3′-(methylsulfonyl)-[1,1′-biphenyl]-4-yl)-1H-pyrazol-1-yl)acetate]
1 to 10 µM	CCOC(=O)c1cn(-c2ccc(-c3cccc(S(C)(=O)=O)c3)cc2)c(CC(C)C)n1 [Example 9, Ethyl 2-isobutyl-1-(3′-(methylsulfonyl)-[1,1′-biphenyl]-4-yl)-1H-imidazole-4-carboxylate]
1 to 10 µM	CCOC(=O)c1cc(-c2ccc(-c3ccc(CO)c(S(C)(=O)=O)c3)cc2)n(CC(C)C)n1 [Example 7, Ethyl 5-(4′-(hydroxymethyl)-3′-(methylsulfonyl)[1,1′-biphenyl]-4-yl)-1-isobutyl-1H-pyrazole-3-carboxylate]
< 1 µM	CCOC(=O)Cc1nc(C(F)(F)F)cn1-c1ccc(-c2ccc(CO)c(S(C)(=O)=O)c2)cc1 [Example 3, Ethyl 2-(1-(4′-(hydroxymethyl)-3′-(methylsulfonyl)-[1,1′-biphenyl]-4-yl)-4-(trifluoromethyl)-1H-imidazol-2-yl)acetate]
< 1 µM	C=C(C)c1cc(-c2ccc(-c3cccc(S(C)(=O)=O)c3)cc2)n(CC(=O)OCC)n1 [Example 13, Ethyl 2-(5-(3′-(methylsulfonyl)-[1,1′-biphenyl]-4-yl)-3-(prop-1-en-2-yl)-1H-pyrazol-1-yl)acetate]
< 1 µM	CCOC(=O)c1cc(-c2ccc(-c3cccc(S(C)(=O)=O)c3)cc2)n(CC(C)C)n1 [Example 5, Ethyl 1-isobutyl-5-(3′-(methylsulfonyl)-[1,1′-biphenyl]-4-yl)-1H-pyrazole-3-carboxylate]
